The target in test [1] is human CB1 receptor (hCB1) (Homo sapiens, UniProt P21554). Briefly: cell-based. The following applies: for +/− HCB1: agonist or inverse agonist at hCB1; for EC50: groups >100 nM-10 μM and >10 μM, cAMP, CHO-K1 hCB1, read-out: EC50 HCB1. Type of test: cell-based. In outline:
(§1)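 Agonism or inverse agonism was assessed as change in intracellular cAMP in CHO-K1 cells expressing human CB1 or rat CB2 (genomic DNA, pcDNA3.1).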

The next test addresses T1, rat CB2 receptor (rCB2) (Rattus norvegicus, UniProt Q9QZN9).
T1 sequence (Q9QZN9 1-360): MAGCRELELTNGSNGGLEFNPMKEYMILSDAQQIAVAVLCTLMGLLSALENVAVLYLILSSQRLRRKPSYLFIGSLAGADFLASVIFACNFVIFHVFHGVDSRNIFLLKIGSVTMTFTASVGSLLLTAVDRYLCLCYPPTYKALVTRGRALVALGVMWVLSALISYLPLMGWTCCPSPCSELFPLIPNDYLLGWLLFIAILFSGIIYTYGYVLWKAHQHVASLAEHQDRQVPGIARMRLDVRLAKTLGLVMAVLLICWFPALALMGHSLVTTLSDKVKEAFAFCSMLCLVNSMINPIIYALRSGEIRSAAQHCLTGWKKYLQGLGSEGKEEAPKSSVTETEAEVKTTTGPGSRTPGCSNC
Briefly: cell-based. Type of test: cell-based. The following applies: for +/− RCB2: agonist or inverse agonist at rCB2. In outline:
as §1

These results are taken from patent US7517874B2 (priority 2007, dated 2009).

pEC50: −log10 of the molar value. Like-named read-outs stand apart in the source and are kept apart here.

human CB1 receptor (hCB1), sequence (P21554 whole entry): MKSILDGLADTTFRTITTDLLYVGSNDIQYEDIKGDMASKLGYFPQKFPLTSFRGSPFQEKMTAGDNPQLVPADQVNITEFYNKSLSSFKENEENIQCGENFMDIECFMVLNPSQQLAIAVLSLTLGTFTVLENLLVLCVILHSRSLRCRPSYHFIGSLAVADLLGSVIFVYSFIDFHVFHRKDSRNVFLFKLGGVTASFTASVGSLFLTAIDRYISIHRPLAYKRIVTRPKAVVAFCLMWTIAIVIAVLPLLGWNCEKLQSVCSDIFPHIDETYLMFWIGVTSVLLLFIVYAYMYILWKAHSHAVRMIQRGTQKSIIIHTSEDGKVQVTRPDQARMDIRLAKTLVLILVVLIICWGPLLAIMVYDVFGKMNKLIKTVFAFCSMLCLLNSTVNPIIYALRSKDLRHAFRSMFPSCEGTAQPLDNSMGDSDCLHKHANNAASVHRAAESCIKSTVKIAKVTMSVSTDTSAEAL

For the molecule `CCS(=O)(=O)N1CCn2c(-c3ccccc3)nc(C(=O)N[C@H](C)C3CCCCC3)c2C1` [Compound 111, (R)-N-(1-cyclohexylethyl)-7-(ethylsulfonyl)-3-phenyl-5,6,7,8-tetrahydroimidazo[1,5-a]pyrazine-1-carboxamide], the pEC50 (in test [1]; on rat CB2 receptor (rCB2)) was less than 5.00 in each case.
The molecule `CNC(=O)[C@@H](NC(=O)c1nc(-c2cc(OC)cc(C(F)(F)F)c2)n2c1CN(C)CCC2)C(C)(C)C` [Compound 418, (S)-N-(3,3-dimethyl-1-(methylamino)-1-oxobutan-2-yl)-3-(3-methoxy-5-(trifluoromethyl)phenyl)-8-methyl-6,7,8,9-tetrahydro-5H-imidazo[1,5-a][1,4]diazepine-1-carboxamide] gave a pEC50 in test [1] of less than 5.00. On rat CB2 receptor (rCB2), the “+/− RCB2” value was “−”.
Take `CNC(=O)[C@@H](NC(=O)c1nc(-c2ccc(F)c(C(=O)O)c2)n2c1CN(C)CCC2)C(C)(C)C` [Compound 411]: the pEC50 (in test [1]; on rat CB2 receptor (rCB2)) was less than 5.00 in each case.
As for `CNC(=O)[C@@H](NC(=O)c1nc(-c2ccc(C#N)cc2)n2c1CN(C)CCC2)C(C)(C)C` [Compound 342], the pEC50 (in test [1]; on rat CB2 receptor (rCB2)) was less than 5.00 each time.
In test [1], `CNC(=O)[C@@H](NC(=O)c1nc(-c2ccc(OC)c(C)c2)n2c1CN(C)CCC2)C(C)(C)C` [Compound 350, (S)-N-(3,3-dimethyl-1-(methylamino)-1-oxobutan-2-yl)-3-(4-methoxy-3-methylphenyl)-8-methyl-6,7,8,9-tetrahydro-5H-imidazo[1,5-a][1,4]diazepine-1-carboxamide] gave a pEC50 of less than 5.00. Also, the “+/− RCB2” value at rat CB2 receptor (rCB2) is “−”.
`CN1CCCn2c(-c3cc(Cl)ccc3F)nc(C(=O)N[C@H](C(N)=O)C(C)(C)C)c2C1` [Compound 574, (S)-N-(1-amino-3,3-dimethyl-1-oxobutan-2-yl)-3-(5-chloro-2-fluorophenyl)-8-methyl-6,7,8,9-tetrahydro-5H-imidazo[1,5-a][1,4]diazepine-1-carboxamide]: in test [1], the “+/− HCB1” value is “+”. Moreover, the “+/− RCB2” value on rat CB2 receptor (rCB2) is on record as “+”.
For `O=C(Nc1ccccc1)c1nc(-c2ccccc2)n2c1CN(C(=O)C1CC1)CC2` [Compound 129, 7-(cyclopropanecarbonyl)-N,3-diphenyl-5,6,7,8-tetrahydroimidazo[1,5-a]pyrazine-1-carboxamide], in test [1], the EC50 is greater than 10000 nM. Moreover, at rat CB2 receptor (rCB2), the “+/− RCB2” value is recorded as “−”.
`CNC(=O)[C@@H](NC(=O)c1nc(-c2cccc(-c3ccccc3)c2)n2c1CN(C)CCC2)C(C)(C)C` [Compound 383, (S)-3-(biphenyl-3-yl)-N-(3,3-dimethyl-1-(methylamino)-1-oxobutan-2-yl)-8-methyl-6,7,8,9-tetrahydro-5H-imidazo[1,5-a][1,4]diazepine-1-carboxamide] gave a pEC50 in test [1] of less than 5.00. For the same molecule, on rat CB2 receptor (rCB2), the “+/− RCB2” value is “−”.
As to `O=C(NC1CCCCC1)c1nc(-c2ccccc2)n2c1CN(C(=O)c1ccoc1)CC2` [Compound 138, N-cyclohexyl-7-(furan-3-carbonyl)-3-phenyl-5,6,7,8-tetrahydroimidazo[1,5-a]pyrazine-1-carboxamide], the half-maximal effective concentration (EC50) in test [1] was greater than 10000 nM. Also, the “+/− RCB2” value at rat CB2 receptor (rCB2) was “−”.
`CNC(=O)[C@H](CC(C)C)NC(=O)c1nc(-c2ccccc2)n2c1CN(C)CC2` [Compound 275, (S)-7-methyl-N-(4-methyl-1-(methylamino)-1-oxopentan-2-yl)-3-phenyl-5,6,7,8-tetrahydroimidazo[1,5-a]pyrazine-1-carboxamide] had a pEC50 in test [1] of less than 5.00. Moreover, the “+/− RCB2” value on rat CB2 receptor (rCB2) is listed as “+”.
With `CNC(=O)[C@H](CC(C)(C)C)NC(=O)c1nc(-c2cc(Cl)c(F)cc2F)n2c1CN(C)CCC2` [Compound 554, (S)-3-(5-chloro-2,4-difluorophenyl)-N-(4,4-dimethyl-1-(methylamino)-1-oxopentan-2-yl)-8-methyl-6,7,8,9-tetrahydro-5H-imidazo[1,5-a][1,4]diazepine-1-carboxamide], the “+/− HCB1” value in test [1] is listed as “+”. In addition, at rat CB2 receptor (rCB2), the “+/− RCB2” value was “+”.
`CNC(=O)[C@@H](NC(=O)c1nc(/C=C/CN2CCOCC2)n2c1CN(C)CC2)C(C)(C)C` [Compound 286, (S,E)-N-(3,3-dimethyl-1-(methylamino)-1-oxobutan-2-yl)-7-methyl-3-(3-morpholinoprop-1-enyl)-5,6,7,8-tetrahydroimidazo[1,5-a]pyrazine-1-carboxamide] had a pEC50 in test [1] of less than 5.00. In addition, the “+/− RCB2” value at rat CB2 receptor (rCB2) is “+”.
As to `CNC(=O)[C@@H](NC(=O)c1nc(-c2ccc(Cl)cc2F)n2c1CNCCC2)C(C)(C)C` [Compound 315, (S)-3-(4-chloro-2-fluorophenyl)-N-(3,3-dimethyl-1-(methylamino)-1-oxobutan-2-yl)-6,7,8,9-tetrahydro-5H-imidazo[1,5-a][1,4]diazepine-1-carboxamide], the pEC50 (in test [1]; on rat CB2 receptor (rCB2)) was less than 5.00 in each case.
For `CNC(=O)[C@@H](NC(=O)c1nc(CCCN2CCCC2)n2c1CN(C)CCC2)C(C)(C)C` [Compound 502, (S)-N-(3,3-dimethyl-1-(methylamino)-1-oxobutan-2-yl)-8-methyl-3-(3-(pyrrolidin-1-yl)propyl)-6,7,8,9-tetrahydro-5H-imidazo[1,5-a][1,4]diazepine-1-carboxamide], in test [1], the pEC50 is less than 5.00. Also, the “+/− RCB2” value at rat CB2 receptor (rCB2) is on record as “+”.
The corresponding values for `CNC(=O)[C@@H](NC(=O)c1nc(-c2ccc(N(C)C)cc2)n2c1CN(C)CCC2)C(C)(C)C` [Compound 381, (S)-N-(3,3-dimethyl-1-(methylamino)-1-oxobutan-2-yl)-3-(4-(dimethylamino)phenyl)-8-methyl-6,7,8,9-tetrahydro-5H-imidazo[1,5-a][1,4]diazepine-1-carboxamide] are less than 5.00 and “−”.
On the same counts, the results for `C[C@@H](NC(=O)c1nc(-c2ccccc2)n2c1CN(CCO)CC2)C1CCCCC1` [Compound 140, (R)-N-(1-cyclohexylethyl)-7-(2-hydroxyethyl)-3-phenyl-5,6,7,8-tetrahydroimidazo[1,5-a]pyrazine-1-carboxamide] are less than 5.00 and “−”.
For the molecule `CN1CCCn2c(-c3ccc(Cl)c(F)c3)nc(C(=O)N[C@@H](CC(C)(C)C)C(N)=O)c2C1` [Compound 588, (S)-N-(1-amino-4,4-dimethyl-1-oxopentan-2-yl)-3-(4-chloro-3-fluorophenyl)-8-methyl-6,7,8,9-tetrahydro-5H-imidazo[1,5-a][1,4]diazepine-1-carboxamide], in test [1], the “+/− HCB1” value was “+”. Besides, the “+/− RCB2” value on rat CB2 receptor (rCB2) is “+”.
In test [1], `CNC(=O)[C@@H](NC(=O)c1nc(-c2ccccc2OC(F)(F)F)n2c1CN(C)CCC2)C(C)(C)C` [Compound 333, (S)-N-(3,3-dimethyl-1-(methylamino)-1-oxobutan-2-yl)-8-methyl-3-(2-(trifluoromethoxy)phenyl)-6,7,8,9-tetrahydro-5H-imidazo[1,5-a][1,4]diazepine-1-carboxamide] showed a pEC50 of less than 5.00. In addition, the “+/− RCB2” value on rat CB2 receptor (rCB2) is “+”.
The corresponding values for `Cc1noc([C@@H](NC(=O)c2nc(-c3ccccc3)n3c2CNCCC3)C(C)(C)C)n1` [Compound 519, (S)-N-(2,2-dimethyl-1-(3-methyl-1,2,4-oxadiazol-5-yl)propyl)-3-phenyl-6,7,8,9-tetrahydro-5H-imidazo[1,5-a][1,4]diazepine-1-carboxamide] are less than 5.00 and “+”.
For `O=C(NN1CCCCC1)c1nc(-c2ccccc2)n2c1CN(CCO)CC2` [Compound 156, 7-(2-hydroxyethyl)-3-phenyl-N-(piperidin-1-yl)-5,6,7,8-tetrahydroimidazo[1,5-a]pyrazine-1-carboxamide], the EC50 in test [1] was greater than 10000 nM. The “+/− RCB2” value on rat CB2 receptor (rCB2) is on record as “−”.
On to `CNC(=O)[C@@H](NC(=O)c1nc(-c2ccccc2)n2c1CN(Cc1cncnc1)CC2)C(C)(C)C` [Compound 62, (S)-N-(3,3-dimethyl-1-(methylamino)-1-oxobutan-2-yl)-3-phenyl-7-(pyrimidin-5-ylmethyl)-5,6,7,8-tetrahydroimidazo[1,5-a]pyrazine-1-carboxamide], for which the pEC50 in test [1] is less than 5.00. For the same molecule, at rat CB2 receptor (rCB2), the “+/− RCB2” value was “−”.
The corresponding values for `C[C@H](NC(=O)c1nc(-c2ccccc2)n2c1CN(C(=O)c1ccccc1)CC2)c1ccccc1` [Compound 125, (S)-7-benzoyl-3-phenyl-N-(1-phenylethyl)-5,6,7,8-tetrahydroimidazo[1,5-a]pyrazine-1-carboxamide] are less than 5.00 and “−”.
The corresponding values for `CNC(=O)[C@@H](NC(=O)c1nc(-c2ccc(F)c(C)c2)n2c1CNCC2)C(C)(C)C` [Compound 7, (S)-N-(3,3-dimethyl-1-(methylamino)-1-oxobutan-2-yl)-3-(4-fluoro-3-methylphenyl)-5,6,7,8-tetrahydroimidazo[1,5-a]pyrazine-1-carboxamide] are less than 5.00 and “−”.
The corresponding values for `CNC(=O)[C@@H](NC(=O)c1nc(-c2cccc3ccccc23)n2c1CN(C)CCC2)C(C)(C)C` [Compound 417, (S)-N-(3,3-dimethyl-1-(methylamino)-1-oxobutan-2-yl)-8-methyl-3-(naphthalen-1-yl)-6,7,8,9-tetrahydro-5H-imidazo[1,5-a][1,4]diazepine-1-carboxamide] are less than 5.00 and “+”.

What is called pEC50 is the negative decadic logarithm of the EC50, by convention in mol/L. A lower pEC50 goes with a large EC50. As a reminder, the EC50 is the midpoint of the concentration-response curve.
